Source: patent publication US9102701B2, “17-hydroxy-17-pentafluoroethyl-estra-4,9(10)-diene-11-ethynylphenyl derivatives, methods for the production thereof and use thereof for treating diseases” (Bayer Intellectual Property GmbH, priority 2009, dated 2015)

Columns and labels:
[1] = molecular target: T1, human progesterone receptor B (Homo sapiens, UniProt P06401); assay: Progesterone receptor-antagonistic action in stably transfected SK-N-MC cells, PR-B, MMTV-LUC reporter; format: cell-based; settings: read-out: IC50 PR-B
T1 construct: expressed in transfected cells; host or cells: SK-N-MC human neuroblastoma cells, stably transfected with pRChPR-B-neo and pMMTV-LUC
T1 sequence (P06401 1-933): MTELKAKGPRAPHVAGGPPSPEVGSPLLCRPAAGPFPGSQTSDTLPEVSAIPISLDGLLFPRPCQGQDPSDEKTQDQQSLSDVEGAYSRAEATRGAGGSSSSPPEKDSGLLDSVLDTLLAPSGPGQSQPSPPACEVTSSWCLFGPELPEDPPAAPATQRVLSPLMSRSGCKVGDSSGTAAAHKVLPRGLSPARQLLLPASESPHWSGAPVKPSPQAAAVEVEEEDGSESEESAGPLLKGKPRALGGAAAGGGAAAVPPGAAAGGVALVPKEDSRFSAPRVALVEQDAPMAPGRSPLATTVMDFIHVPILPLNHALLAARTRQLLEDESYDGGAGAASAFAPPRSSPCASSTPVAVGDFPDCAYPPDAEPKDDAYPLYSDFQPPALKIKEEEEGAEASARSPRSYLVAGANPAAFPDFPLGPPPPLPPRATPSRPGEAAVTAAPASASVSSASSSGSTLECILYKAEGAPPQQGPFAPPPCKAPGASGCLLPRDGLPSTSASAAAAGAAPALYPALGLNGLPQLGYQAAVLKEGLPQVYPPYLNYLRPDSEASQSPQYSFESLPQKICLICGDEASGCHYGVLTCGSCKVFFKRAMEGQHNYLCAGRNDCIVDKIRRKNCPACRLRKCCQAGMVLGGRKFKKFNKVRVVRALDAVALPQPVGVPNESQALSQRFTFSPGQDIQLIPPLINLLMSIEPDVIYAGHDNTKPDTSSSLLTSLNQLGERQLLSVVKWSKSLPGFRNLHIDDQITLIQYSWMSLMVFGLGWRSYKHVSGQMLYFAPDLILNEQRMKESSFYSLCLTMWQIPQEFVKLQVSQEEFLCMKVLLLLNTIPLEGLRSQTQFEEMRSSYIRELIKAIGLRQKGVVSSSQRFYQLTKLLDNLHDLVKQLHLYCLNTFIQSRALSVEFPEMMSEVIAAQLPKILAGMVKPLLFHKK
Procedure: (§1) Determination of Progesterone Receptor-Antagonistic Action in Stable Transfectants of Human Neuroblastoma Cells (SK-N-MC Cells) with the Human Progesterone a or Progesterone B Receptor and an MN-LUC Reporter Construct
(§2) SK-N-MC cells (human neuroblastoma cells) which have been stably transfected with plasmids expressing the human progesterone receptor B (pRChPR-B-neo) or the human progesterone receptor A (pRChPR-A-neo) and a reporter construct (pMMTV-LUC) were incubated for 24 hours either in the absence (negative control) or in the presence of ascending amounts of the particular test compound (0.01 nmol/l, 0.1 nmol/l, 1 nmol/l, 10 nmol/l, 100 nmol/l and […]), in order to determine the agonistic efficacy. As a positive control of the reporter gene induction, the cells were treated with the synthetic gestagen promegestone (0.01 nmol/l, 0.1 nmol/l, 1 nmol/l, 10 nmol/l, 100 nmol/l and […]). To determine the antagonistic activity, the cells were treated with 0.1 nmol/l promegestone and additionally with ascending amounts of the particular test compound (0.01 nmol/l, 0.1 nmol/l, 1 nmol/l, 10 nmol/l, 100 nmol/l and […]). The activity of the reporter gene LUC (LUC=luciferase) was determined in the cell lysates and measured as RLU (relative light units). All measurements are reported as % efficacy and as EC50 and IC50 concentrations.

[2] = molecular target: T2, human progesterone receptor A (Homo sapiens, UniProt P06401); assay: Progesterone receptor-antagonistic action in stably transfected SK-N-MC cells, PR-A, MMTV-LUC reporter; format: cell-based; settings: read-out: IC50 PR-A
T2 construct: expressed in transfected cells; host or cells: SK-N-MC human neuroblastoma cells, stably transfected with pRChPR-A-neo and pMMTV-LUC
T2 sequence (P06401 1-769 isoform P06401-2): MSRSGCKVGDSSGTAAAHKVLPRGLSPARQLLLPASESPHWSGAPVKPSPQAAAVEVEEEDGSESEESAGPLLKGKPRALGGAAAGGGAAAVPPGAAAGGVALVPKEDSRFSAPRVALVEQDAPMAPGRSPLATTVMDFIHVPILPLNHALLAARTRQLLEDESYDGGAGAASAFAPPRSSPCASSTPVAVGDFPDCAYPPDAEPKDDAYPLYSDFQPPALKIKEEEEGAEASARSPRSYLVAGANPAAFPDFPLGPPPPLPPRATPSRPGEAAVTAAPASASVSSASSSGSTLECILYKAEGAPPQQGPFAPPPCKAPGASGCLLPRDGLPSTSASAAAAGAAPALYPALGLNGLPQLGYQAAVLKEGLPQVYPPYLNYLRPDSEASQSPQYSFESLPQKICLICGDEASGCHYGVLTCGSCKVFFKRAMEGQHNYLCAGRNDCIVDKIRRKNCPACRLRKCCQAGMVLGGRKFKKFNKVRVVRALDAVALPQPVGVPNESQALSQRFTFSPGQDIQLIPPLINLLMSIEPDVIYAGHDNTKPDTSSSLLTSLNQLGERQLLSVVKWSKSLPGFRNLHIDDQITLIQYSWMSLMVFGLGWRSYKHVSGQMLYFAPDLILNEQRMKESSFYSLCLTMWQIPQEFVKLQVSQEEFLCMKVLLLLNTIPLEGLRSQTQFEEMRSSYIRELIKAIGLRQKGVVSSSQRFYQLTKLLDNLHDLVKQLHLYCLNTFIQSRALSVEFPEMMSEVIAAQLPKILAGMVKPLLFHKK
Procedure: as §1, §2

Structure (SMILES) | IC50 [1] | IC50 [2]
CC(C)(O)C#Cc1ccc([C@H]2C[C@@]3(C)[C@@H](CC[C@@]3(O)C(F)(F)C(F)(F)F)[C@@H]3CCC4=CC(=O)CCC4=C32)cc1 [Example 21, (8S,11R,13S,14S,17S)-17-hydroxy-11-[4-(3-hydroxy-3-methylbut-1-ynyl)phenyl]-13-methyl-17-pentafluoroethyl-1,2,6,7,8,11,12,13,14,15,16,17-dodecahydrocyclopenta[a]phenanthren-3-one] | 1 nM | 0.36 nM
C#Cc1ccc([C@H]2C[C@@]3(C)C(CC[C@@]3(O)C(F)(F)C(F)(F)F)C3CCC4=CC(=O)CCC4=C32)cc1 (stereo partly drawn) [Example 22, (8S,11R,13S,14S,17S)-1′-(4-ethynylphenyl)-17-hydroxy-13-methyl-17-pentafluoroethyl-1,2,6,7,8,11,12,13,14,15,16,17-dodecahydrocyclopenta[a]phenanthren-3-one] | 0.014 nM | 0.014 nM
C[C@]12C[C@H](c3ccc(C#CCN=[N+]=[N-])cc3)C3=C4CCC(=O)C=C4CC[C@H]3[C@@H]1CC[C@@]2(O)C(F)(F)C(F)(F)F [Example 23, (8S,11R,13S,14S,17S)-11-[4-(3-azidoprop-1-yn-1-yl)phenyl]-17-hydroxy-13-methyl-17-pentafluoroethyl-1,2,6,7,8,11,12,13,14,15,16,17-dodecahydrocyclopenta[a]phenanthren-3-one] | 0.3 nM | 0.2 nM
C[C@]12C[C@H](c3ccc(C#C/C=N\OCc4ccccc4)cc3)C3=C4CCC(=O)C=C4CCC3C1CC[C@@]2(O)C(F)(F)C(F)(F)F (stereo partly drawn) [Example 24B, (Z)-[4-((8S,11R,13S,14S,17S)-17-hydroxy-13-methyl-3-oxo-17-pentafluoroethyl-2,3,6,7,8,11,12,13,14,15,16,17-dodecahydro-1H-cyclopenta[a]phenanthren-1′-yl)phenyl]propynal O-benzyl oxime] | 0.1 nM | 0.1 nM
CCO/N=C\C#Cc1ccc([C@H]2C[C@@]3(C)C(CC[C@@]3(O)C(F)(F)C(F)(F)F)C3CCC4=CC(=O)CCC4=C32)cc1 (stereo partly drawn) [Example 25B, (Z)-[4-((8S,11R,13S,14S,17S)-17-hydroxy-13-methyl-3-oxo-17-pentafluoroethyl-2,3,6,7,8,11,12,13,14,15,16,17-dodecahydro-1H-cyclopenta[a]phenanthren-1′-yl)phenyl]propynal O-ethyl oxime] | 0.09 nM | 0.09 nM
Cc1noc(C)c1NC(=O)NCC#Cc1ccc([C@H]2C[C@@]3(C)C(CC[C@@]3(O)C(F)(F)C(F)(F)F)C3CCC4=CC(=O)CCC4=C32)cc1 (stereo partly drawn) [Example 28, 1-(3,5-dimethylisoxazol-4-yl)-3-{3-[4-((8S,11R,13S,14S,17S)-17-hydroxy-13-methyl-3-oxo-17-pentafluoroethyl-2,3,6,7,8,11,12,13,14,15,16,17-dodecahydro-1H-cyclopenta[a]phenanthren-1′-yl)phenyl]prop-2-ynyl}urea] | 0.08 nM | 0.04 nM
CC(C)NC(=O)NCC#Cc1ccc([C@H]2C[C@@]3(C)[C@@H](CC[C@@]3(O)C(F)(F)C(F)(F)F)[C@@H]3CCC4=CC(=O)CCC4=C32)cc1 [Example 29, 1-{3-[4-((8S,11R,13S,14S,17S)-17-hydroxy-13-methyl-3-oxo-17-pentafluoroethyl-2,3,6,7,8,11,12,13,14,15,16,17-dodecahydro-1H-cyclopenta[a]phenanthren-11-yl)phenyl]prop-2-ynyl}-3-isopropylurea] | 0.1 nM | 0.1 nM
CCOC(=O)CCNC(=O)NCC#Cc1ccc([C@H]2C[C@@]3(C)C(CC[C@@]3(O)C(F)(F)C(F)(F)F)C3CCC4=CC(=O)CCC4=C32)cc1 (stereo partly drawn) [Example 30, 3-(3-{3-[4-((8S,11R,13S,14S,17S)-17-hydroxy-13-methyl-3-oxo-17-pentafluoroethyl-2,3,6,7,8,11,12,13,14,15,16,17-dodecahydro-1H-cyclopenta[a]phenanthren-1′-yl)phenyl]prop-2-ynyl}ureido)propionic acid ethyl ester] | 0.4 nM | 0.1 nM
COc1ccc(NC(=O)NCC#Cc2ccc([C@H]3C[C@@]4(C)[C@@H](CC[C@@]4(O)C(F)(F)C(F)(F)F)[C@@H]4CCC5=CC(=O)CCC5=C43)cc2)cc1 [Example 32, 1-{3-[4-((8S,11R,13S,14S,17S)-17-hydroxy-13-methyl-3-oxo-17-pentafluoroethyl-2,3,6,7,8,11,12,13,14,15,16,17-dodecahydro-1H-cyclopenta[a]phenanthren-11-yl)phenyl]prop-2-ynyl}-3-(4-methoxyphenyl)urea] | 0.1 nM | 0.2 nM
CC(C)(C)c1ccc(NC(=O)NCC#Cc2ccc([C@H]3C[C@@]4(C)[C@@H](CC[C@@]4(O)C(F)(F)C(F)(F)F)[C@@H]4CCC5=CC(=O)CCC5=C43)cc2)cc1 [Example 33, 1-{3-[4-((8S,11R,13S,14S,17S)-17-hydroxy-13-methyl-3-oxo-17-pentafluoroethyl-2,3,6,7,8,11,12,13,14,15,16,17-dodecahydro-1H-cyclopenta[a]phenanthren-11-yl)phenyl]prop-2-ynyl}-3-(4-tert-butylphenyl)urea] | 0.8 nM | 0.9 nM
C[C@]12C[C@H](c3ccc(C#CCNC(=O)Nc4ccc(Cl)cc4)cc3)C3=C4CCC(=O)C=C4CC[C@H]3[C@@H]1CC[C@@]2(O)C(F)(F)C(F)(F)F [Example 35, 1-{3-[4-((8S,11R,13S,14S,17S)-17-hydroxy-13-methyl-3-oxo-17-pentafluoroethyl-2,3,6,7,8,11,12,13,14,15,16,17-dodecahydro-1H-cyclopenta[a]phenanthren-11-yl)phenyl]prop-2-ynyl}-3-(4-chlorophenyl)urea] | 0.4 nM | 0.4 nM
CCOC(=O)c1ccc(NC(=O)NCC#Cc2ccc([C@H]3C[C@@]4(C)C(CC[C@@]4(O)C(F)(F)C(F)(F)F)C4CCC5=CC(=O)CCC5=C43)cc2)cc1 (stereo partly drawn) [Example 37, 4-(3-{3-[4-((8S,11R,13S,14S,17S)-17-hydroxy-13-methyl-3-oxo-17-pentafluoroethyl-2,3,6,7,8,11,12,13,14,15,16,17-dodecahydro-1H-cyclopenta[a]phenanthren-1′-yl)phenyl]prop-2-ynyl}ureido)benzoic acid ethyl ester] | 0.4 nM | 0.1 nM
